Consider one compound from paper PMC2254147, “Novel Triazine JPC-2067-B Inhibits Toxoplasma gondii In Vitro and In Vivo” (PLoS Neglected Tropical Diseases, 2008).

Series [1] has as its system human foreskin fibroblasts (HFF). The series is described as follows: Toxicity for host cells, 3H thymidine incorporation by non-confluent HFF. The series is classed as cell-based. Conditions: increasing concentrations, tested concomitantly with T. gondii.
For a further series, the system named is T. gondii. The series can be described thus: Cidal test: cultures kept 52 days after removing compound on the 4th day. The series is classed as cell-based, Toxoplasma gondii. Particulars: exposed 4 days, compound removed, cultured 52 days. The text has this:
In separate experiments, to determine whether JPC-2067-B would be cidal for T. gondii, cultures were maintained for 52 days after removing JPC-2067-B on the 4th day of culture.

Series [2] relates to T. gondii tachyzoites (RH strain). The series can be described thus: Murine toxoplasmosis, i.p. JPC-2067-B, peritoneal parasite burden. The series is classed as in vivo, mice (outbred Swiss Webster). On the procedure:
Tachyzoites also were used to infect mice. Outbred Swiss Webster mice were bred in our specific pathogen free colony. When they were approximately 30 g, they received 10,000 RH strain tachyzoites intra-peritoneally (i.p.); numbers of parasites present in peritoneal fluid were counted four days later as described,[13]. Mice were maintained and utilized in accordance with IACUC and NIH guidelines and approvals. JPC-2067-B was administered parenterally. In initial studies, this was given 15 minutes after i.p. infection and then each day for four days(1.25 mg/kg/day). […] Control mice received 1% DMSO in PBS. For these parenterally treated mice, female mice received a dose of 1.25 mg/kg/day of JPC-2067-B, administered i.p. for the next 3 days. Control mice received an equivalent amount of DMSO (1%) in 1× PBS. In a separate experiment, DMSO at this concentration was shown not to modify subsequent parasite numbers when compared with i.p. inoculation of PBS. […] In contrast, infected control mice appeared ill, with ruffled fur and hunched posture. […] These differences between control and treated mice were statistically significant (p<0.05).

Another series has as its target T1, Rat liver DHFR (Rattus norvegicus, UniProt Q920D2).
T1 construct: Rat liver DHFR was prepared from livers of female Sprague-Dawley rats; from tissue; host or cells: liver of female Sprague-Dawley rats
T1 sequence (Q920D2 1-187): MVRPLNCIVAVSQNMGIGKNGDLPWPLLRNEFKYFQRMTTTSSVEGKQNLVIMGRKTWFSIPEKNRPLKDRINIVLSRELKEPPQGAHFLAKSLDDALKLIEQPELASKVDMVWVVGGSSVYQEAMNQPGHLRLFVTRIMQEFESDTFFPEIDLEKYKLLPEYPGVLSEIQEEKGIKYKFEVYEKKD
The series can be described thus: Spectrophotometric DHFR assay, rat liver DHFR. The series is classed as biochemical. Conditions: 37°C; (95% confidence limits). The procedure:
Rat liver DHFR was prepared from livers of female Sprague-Dawley rats. The 100,000× g supernate was partially purified by ammonium sulfate precipitation; the 50–90% precipitate was re-dissolved and stored in liquid nitrogen.
(§1) The spectrophotometric assay for DHFR was optimized for temperature and concentration of substrate and cofactor for each enzyme. […] The reaction was continuously recorded for 3 minutes. […] The low background activity in the absence of dihydrofolic acid was subtracted from all rates.
(§2) DHFR was assayed with several concentrations of inhibitor to produce rates ranging from 1 to 90% of the uninhibited rate. At least three concentrations were required for calculation; most curves contained five concentrations.

Series [3] concerns the target T2, TgDHFR (Toxoplasma gondii, UniProt Q07422).
T2 construct: DHFR from T. gondii was isolated directly from RH strain T. gondii grown in culture; endogenous in cells; host or cells: RH strain T. gondii grown on CHO/dhfr- cells
T2 sequence (Q07422 1-610): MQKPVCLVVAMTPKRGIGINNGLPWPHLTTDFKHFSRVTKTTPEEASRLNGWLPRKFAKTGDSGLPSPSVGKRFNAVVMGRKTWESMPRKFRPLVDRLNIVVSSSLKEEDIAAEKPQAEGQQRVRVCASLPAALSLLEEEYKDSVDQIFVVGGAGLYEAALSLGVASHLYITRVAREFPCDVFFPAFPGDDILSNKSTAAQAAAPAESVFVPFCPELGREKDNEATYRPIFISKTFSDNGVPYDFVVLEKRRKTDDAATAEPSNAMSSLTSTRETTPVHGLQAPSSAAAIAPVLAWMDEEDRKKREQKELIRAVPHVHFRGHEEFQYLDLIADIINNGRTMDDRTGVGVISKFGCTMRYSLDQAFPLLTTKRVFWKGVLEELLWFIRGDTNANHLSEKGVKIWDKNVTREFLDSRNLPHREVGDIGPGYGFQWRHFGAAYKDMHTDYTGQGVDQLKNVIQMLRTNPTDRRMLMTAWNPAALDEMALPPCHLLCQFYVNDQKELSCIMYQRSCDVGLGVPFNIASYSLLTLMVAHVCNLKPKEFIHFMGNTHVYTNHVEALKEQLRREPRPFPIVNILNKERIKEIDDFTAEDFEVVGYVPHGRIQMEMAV
The series is described as follows: biochemical. The series is classed as biochemical. Conditions: 37°C. The procedure:
DHFR from Pneumocystis carinii was produced as the recombinant enzyme expressed in Escherichia coli. […] Organisms were introduced into a confluent monolayer and harvested when the mammalian cells were lysed. The 100,000× g supernate was stored in liquid nitrogen.
as §1, §2

The next series has as its target T3, hDHFR (Homo sapiens, UniProt P00374).
T3 construct: made in house
T3 sequence (P00374 1-187): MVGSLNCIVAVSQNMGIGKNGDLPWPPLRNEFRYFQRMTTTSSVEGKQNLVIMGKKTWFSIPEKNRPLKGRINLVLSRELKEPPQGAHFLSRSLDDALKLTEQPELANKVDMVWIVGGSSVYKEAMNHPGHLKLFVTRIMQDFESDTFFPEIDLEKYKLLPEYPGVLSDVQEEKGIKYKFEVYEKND
The series can be described thus: Plate reader DHFR assay, recombinant human DHFR. The series is classed as biochemical. The text has this:
(§3) DHFR from T. gondii prepared as above was also directly compared to purified recombinant P. falciparum DHFR (pfDHFR) and purified recombinant human DHFR (hDHFR). The hDHFR was from pDFR plasmid. The enzyme was purified following ammonium sulfate precipitation, methotrexate:agarose affinity chromatography, and finally a Superdex 200 size exclusion column. The pfDHFR isolation methods were those reported previously,[44]. […] The same buffer as used in the other assays comparing T. gondii DHFR with DHFRs from rat liver P. carinii and M. avium intracellulare was used but the maximal activity, temperature, and length of observation were adjusted for assays on the specific plate reader. […] The reaction was setup at 23°C, the plate loaded, and the OD340 recorded at 20 second intervals for 10 minutes. The first 8 minutes were used to generate linear fit slopes in Excel. […] Results are expressed as the percent of control activity versus log concentration of inhibitor. Prism 5.0 was used to generate curves from 12 different concentrations of inhibitor using a non-linear fit method.

The target of series [4] is T2, TgDHFR. The series can be described thus: biochemical. Conditions: 23°C. The series is classed as biochemical.
Source text: as §3

“Also recorded” adds a separate entry of the source. Like-named read-outs stand apart in the source and are kept apart here.

In general, IC50 refers to the point on the concentration scale where inhibition reaches its midpoint. For `CC1(C)N=C(N)N=C(N)N1OCCCOc1ccc(OC(F)(F)F)cc1Cl` [JPC-2067-B, 4,6-diamino-1,2-dihydro-2,2-dimethyl-1-(3′(2-chloro-, 4-trifluoromethoxyphenoxy)propyloxy)-1,3,5-triazine], the “Toxicity for host cells, uptake of tritiated thymidine by nonconfluent fibroblasts” value in series [1] is on record as “no toxic effect on host cells; also recorded: no toxicity”. In addition, the “Plaques or growth of parasites after removal of compound (cidal effect)” value in the series on T. gondii is recorded as “No plaques or Toxoplasma were seen throughout 52 days of culture; also recorded: No plaques or growth of parasites were detected”. For the same compound, the Intraperitoneal parasite numbers entry in series [2] (1.25 mg/kg/day i.p., 10,000 RH tachyzoites i.p., fifth day after injection of parasites, p<0.05) is reported as “reduced by two logs”. Besides, the “Appearance of treated mice” value in series [2] (1.25 mg/kg/day i.p., 4 days after infection) was “sleek and active”. Further, the IC50 against Rat liver DHFR was determined as 22.2 nM; at TgDHFR [3] ((95% confidence limits), read-out: Tg DHFR IC50), 6.5 nM; at hDHFR (recombinant, 23°C, (95% Confidence Intervals), read-out: hDHFR IC50), 148 nM; at hDHFR (text to Figure 5 and Table 2, read-out: IC50 for human DHFR), 150 nM; against TgDHFR [4] (Tg lysate, (95% Confidence Intervals)) it was 32 nM. For the same compound, the “Ratio of IC50 values rat liver DHFR/TgDHFR” value on TgDHFR [3] (lysates) is given as 3.4. At TgDHFR [4] (high throughput method), the “Ratio of IC50 values hDHFR/tgDHFR” value was found to be 4.6.
